Data as given in patent US11813239B2, “Compositions and methods for improving cardiac structure and/or function” (Wisconsin Alumni Research Foundation, priority 2020, dated 2023).
Entries after “also recorded” stand apart in the source; their conditions may differ.

Legend:
[1] = tested on: adult mouse heart following myocardial infarction; test: Echocardiography after adult myocardial infarction, malonate from within an hour post-MI for two weeks; type: in vivo; conditions: for % EF (Ejection Fraction) / % FS (Fractional Shortening) / LV Mass (Left Ventricular Mass, Anatomical Weight) / LV Vol; d (Left Ventricular Volume; diastole) / LV Vol; s (Left Ventricular Volume; systole) / LVAWD (Left Ventricle Anterior Wall Thickness Diastole) / LVAWS (Left Ventricle Anterior Wall Thickness Systole) / LVIDD (Left Ventricle Internal Diameter Diastole) / LVIDS (Left Ventricle Internal Diameter Systole) / LVPWD (Left Ventricle Posterior Wall Thickness Diastole) / LVPWS (Left Ventricle Posterior Wall Thickness Systole): adult mice, mean ± SE
[2] = tested on: tricarboxylic acid (TCA) cycle and glucose metabolism; test: LC-MS metabolite analysis of adult hearts
Description: Saline was used as a vehicle control for all experiments. […] Adult mice were injected intraperitoneally daily with either saline or 100 mg/kg dimethyl malonate post-MI for 2 or 4 weeks.
To analyze intracellular metabolites, metabolites were extracted with cold liquid chromatography-mass spectrometry (LC-MS) grade 3/1 butanol/methanol (v/v). The methanol layer was transferred to a new vial and samples were dried under nitrogen flow and subsequently dissolved in LC-MS grade water for LC-MS analysis methods. Protein pellets were removed by centrifugation. Samples were analyzed using a Thermo Q-Exactive mass spectrometer coupled to a Vanquish Horizon Ultra-High Performance Liquid Chromatograph (UHPLC). Metabolites were separated on a C18 (details below) at a 0.2 ml per min flow rate and 30° C. column temperature. […] The identification of metabolites reported was based on exact m/z and retention times, which were determined with chemical standards. Data were analyzed with Maven. Relative metabolite levels were normalized to internal standard Tryptophan (^13C11) and expressed relative to levels measured in the control group.
To determine whether SDH inhibition regulates cardiomyocyte cell cycle activity by modulating succinate levels, we measured the levels of intracellular succinate by liquid chromatography-mass spectrometry (LC-MS). […]

[3] = tested on: postnatal (P7) mouse heart following myocardial infarction; test: Echocardiography after myocardial infarction in P7 juvenile mice
Description: Neonatal mice at postnatal day 1 (P1) or day 7 (P7) were used for myocardial infarction (MI) surgery. Neonatal mice were subjected to MI surgeries as previously described. Briefly, neonates were anesthetized by hypothermia on ice. Lateral thoracotomy at the fourth intercostal space was performed by blunt dissection of the intercostal muscles after skin incision. A C-1 tapered needle attached to a 6-0 prolene suture (Ethicon Inc., Bridgewater, N.J.) was passed through the mid-ventricle below the left anterior descending coronary artery (LAD) and tied off to induce MI. The prolene suture was used to suture the ribs together and seal the chest wall incisions, and the skin was closed using adhesive glue (3M). The mice then were warmed on a heating pad until recovery. Sham-operated mice underwent the same procedure including hypothermic anesthesia, but not LAD ligation.
Neonatal mice were weighed and injected daily with either saline, 100 mg/kg dimethyl succinate (Sigma), 100 mg/kg dimethyl malonate (Sigma), or 100 μg/kg Atpenin A5 (Enzo Life Sciences). Dimethyl succinate and dimethyl malonate were dissolved in saline. Stock solution of Atpenin A5 at 0.1 mg/ml was initially prepared by dissolving in DMSO (Sigma) and then further diluted with saline before injection. Saline was used as a vehicle control for all experiments.
Transthoracic echocardiography was performed by using a Visual Sonics 770 ultrasonograph with a 25-MHz transducer (Visual Sonics, Toronto) as described previously^19. Mice were lightly anesthetized with 1% isoflurane and maintained on a heated platform. Two-dimensionally guided M-mode images from a parasternal long axis (PLAX) of the left ventricle (LV) were acquired at the tip of the papillary muscles. Wall thickness and chamber diameters were measured in both diastole and systole. Fractional shortening was calculated as (LVDd−LVDs)/LVDd×100, where LVDd is LV diameter in diastole and LVDs is LV diameter in systole. Ejection fraction was calculated as [(7.0/(2.4+LVDd)(LVDd)^3−(7.0/(2.4+LVDs)(LVDs)^3/(7.0/(2.4+LVDd)(LVDd)^3×100 and LV mass was calculated by using the formula [1.05×((Posterior Walldiastole+Anterior Walldiastole+LVDd)^3−(LVDd)^3)]. All parameters were measured over at least three consecutive cycles.
We injected dimethyl malonate (100 mg/kg, daily) in neonatal mice directly after birth for 2 weeks with an MI performed once the mice reached P7. We then analyzed the hearts following injury to determine whether malonate results in prolongation of the neonatal regenerative window (FIG. 10A).

[4] = Baseline before surgery and dosing (same values as saline Table 4A)
[5] = MI, 14 DPMI, dimethyl malonate 100 mg/kg intraperitoneally daily for 2 weeks post-MI
[6] = MI, 28 DPMI, dimethyl malonate 100 mg/kg intraperitoneally daily for 2 weeks post-MI
[7] = sham (SH), 14 DPMI, dimethyl malonate 100 mg/kg intraperitoneally daily for 2 weeks
[8] = sham (SH), 28 DPMI, dimethyl malonate 100 mg/kg intraperitoneally daily for 2 weeks
[9] = MI at P7 (n = 6), dimethyl malonate 100 mg/kg daily for 2 weeks from birth, echo 21 days post-MI (P7D21), mean ± SE
[10] = sham at P7 (SH, n = 6), dimethyl malonate 100 mg/kg daily for 2 weeks from birth, echo at day 21 (P7D21), mean ± SE

COC(=O)CC(=O)OC [Malonate, dimethyl malonate]
cardiac function by echocardiography (EF and FS) ([1]; adult MI, dimethyl malonate 100 mg/kg daily for 2 weeks, 28 days post-MI, vs saline): complete restoration of cardiac function; also recorded: significant improvement of cardiac function
cardiac function by echocardiography ([1]; adult MI, dimethyl malonate 100 mg/kg daily, 14 days post-MI, vs controls, difference was not significant): trending improvement in cardiac function
% EF (Ejection Fraction) [1, 4]: 57.761 ± 0.698%
% FS (Fractional Shortening) [1, 4]: 29.844 ± 0.434%
LV Mass (Left Ventricular Mass, Anatomical Weight) [1, 4]: 78.043 ± 3.706 mg
LV Vol; d (Left Ventricular Volume; diastole) [1, 4]: 59.761 ± 3.319 µL
LV Vol; s (Left Ventricular Volume; systole) [1, 4]: 25.363 ± 1.705 µL
LVAWD (Left Ventricle Anterior Wall Thickness Diastole) [1, 4]: 0.641 ± 0.006 mm
LVAWS (Left Ventricle Anterior Wall Thickness Systole) [1, 4]: 0.767 ± 0.005 mm
LVIDD (Left Ventricle Internal Diameter Diastole) [1, 4]: 3.731 ± 0.086 mm
LVIDS (Left Ventricle Internal Diameter Systole) [1, 4]: 2.619 ± 0.072 mm
LVPWD (Left Ventricle Posterior Wall Thickness Diastole) [1, 4]: 0.639 ± 0.006 mm
LVPWS (Left Ventricle Posterior Wall Thickness Systole) [1, 4]: 0.769 ± 0.005 mm
% EF (Ejection Fraction) [1, 5]: 44.421 ± 5.272%
% FS (Fractional Shortening) [1, 5]: 22.034 ± 2.951%
LV Mass (Left Ventricular Mass, Anatomical Weight) [1, 5]: 80.024 ± 8.731 mg
LV Vol; d (Left Ventricular Volume; diastole) [1, 5]: 74.738 ± 12.392 µL
LV Vol; s (Left Ventricular Volume; systole) [1, 5]: 44.249 ± 11.125 µL
LVAWD (Left Ventricle Anterior Wall Thickness Diastole) [1, 5]: 0.583 ± 0.015 mm
LVAWS (Left Ventricle Anterior Wall Thickness Systole) [1, 5]: 0.723 ± 0.020 mm
LVIDD (Left Ventricle Internal Diameter Diastole) [1, 5]: 4.047 ± 0.283 mm
LVIDS (Left Ventricle Internal Diameter Systole) [1, 5]: 3.188 ± 0.334 mm
LVPWD (Left Ventricle Posterior Wall Thickness Diastole) [1, 5]: 0.578 ± 0.014 mm
LVPWS (Left Ventricle Posterior Wall Thickness Systole) [1, 5]: 0.753 ± 0.016 mm
% EF (Ejection Fraction) [1, 6]: 48.940 ± 5.707%
% FS (Fractional Shortening) [1, 6]: 24.858 ± 3.214%
LV Mass (Left Ventricular Mass, Anatomical Weight) [1, 6]: 83.201 ± 16.390 mg
LV Vol; d (Left Ventricular Volume; diastole) [1, 6]: 84.656 ± 22.884 µL
LV Vol; s (Left Ventricular Volume; systole) [1, 6]: 47.375 ± 16.164 µL
LVAWD (Left Ventricle Anterior Wall Thickness Diastole) [1, 6]: 0.528 ± 0.033 mm
LVAWS (Left Ventricle Anterior Wall Thickness Systole) [1, 6]: 0.693 ± 0.042 mm
LVIDD (Left Ventricle Internal Diameter Diastole) [1, 6]: 4.183 ± 0.448 mm
LVIDS (Left Ventricle Internal Diameter Systole) [1, 6]: 3.193 ± 0.451 mm
LVPWD (Left Ventricle Posterior Wall Thickness Diastole) [1, 6]: 0.600 ± 0.020 mm
LVPWS (Left Ventricle Posterior Wall Thickness Systole) [1, 6]: 0.755 ± 0.017 mm
% EF (Ejection Fraction) [1, 7]: 52.458 ± 2.795%
% FS (Fractional Shortening) [1, 7]: 26.613 ± 1.724%
LV Mass (Left Ventricular Mass, Anatomical Weight) [1, 7]: 78.241 ± 13.192 mg
LV Vol; d (Left Ventricular Volume; diastole) [1, 7]: 71.304 ± 10.106 µL
LV Vol; s (Left Ventricular Volume; systole) [1, 7]: 33.993 ± 5.072 µL
LVAWD (Left Ventricle Anterior Wall Thickness Diastole) [1, 7]: 0.575 ± 0.045 mm
LVAWS (Left Ventricle Anterior Wall Thickness Systole) [1, 7]: 0.723 ± 0.047 mm
LVIDD (Left Ventricle Internal Diameter Diastole) [1, 7]: 4.005 ± 0.234 mm
LVIDS (Left Ventricle Internal Diameter Systole) [1, 7]: 2.940 ± 0.188 mm
LVPWD (Left Ventricle Posterior Wall Thickness Diastole) [1, 7]: 0.575 ± 0.035 mm
LVPWS (Left Ventricle Posterior Wall Thickness Systole) [1, 7]: 0.733 ± 0.046 mm
% EF (Ejection Fraction) [1, 8]: 48.208 ± 3.686%
% FS (Fractional Shortening) [1, 8]: 24.032 ± 2.173%
LV Mass (Left Ventricular Mass, Anatomical Weight) [1, 8]: 82.315 ± 5.106 mg
LV Vol; d (Left Ventricular Volume; diastole) [1, 8]: 68.006 ± 5.647 µL
LV Vol; s (Left Ventricular Volume; systole) [1, 8]: 35.538 ± 4.993 µL
LVAWD (Left Ventricle Anterior Wall Thickness Diastole) [1, 8]: 0.623 ± 0.014 mm
LVAWS (Left Ventricle Anterior Wall Thickness Systole) [1, 8]: 0.755 ± 0.010 mm
LVIDD (Left Ventricle Internal Diameter Diastole) [1, 8]: 3.940 ± 0.137 mm
LVIDS (Left Ventricle Internal Diameter Systole) [1, 8]: 2.998 ± 0.170 mm
LVPWD (Left Ventricle Posterior Wall Thickness Diastole) [1, 8]: 0.618 ± 0.013 mm
LVPWS (Left Ventricle Posterior Wall Thickness Systole) [1, 8]: 0.753 ± 0.013 mm
intracellular succinate levels in the heart (LC-MS) ([2]; adult MI, dimethyl malonate 100 mg/kg daily, 14 days post-MI): significant increase in succinate levels
succinate levels (LC-MS metabolomics) ([2]; adult mice treated for 2 weeks with dimethyl malonate, vs saline): increase in succinate levels
% EF (Ejection Fraction) [3, 9]: 69.751 ± 5.496%
% FS (Fractional Shortening) [3, 9]: 38.443 ± 4.043%
LV Mass (Left Ventricular Mass, Anatomical Weight) [3, 9]: 48.029 ± 9.293 mg
LV Vol; d (Left Ventricular Volume; diastole) [3, 9]: 24.289 ± 5.739 µL
LV Vol; s (Left Ventricular Volume; systole) [3, 9]: 8.741 ± 3.350 µL
LVAWD (Left Ventricle Anterior Wall Thickness Diastole) [3, 9]: 0.702 ± 0.029 mm
LVAWS (Left Ventricle Anterior Wall Thickness Systole) [3, 9]: 0.814 ± 0.023 mm
LVIDD (Left Ventricle Internal Diameter Diastole) [3, 9]: 2.490 ± 0.269 mm
LVIDS (Left Ventricle Internal Diameter Systole) [3, 9]: 1.578 ± 0.259 mm
LVPWD (Left Ventricle Posterior Wall Thickness Diastole) [3, 9]: 0.684 ± 0.037 mm
LVPWS (Left Ventricle Posterior Wall Thickness Systole) [3, 9]: 0.823 ± 0.022 mm
cardiac function by echocardiography (EF, FS, LVIDD, LVIDS) ([3]; MI at P7, dimethyl malonate 100 mg/kg daily for 2 weeks from birth, 21 days post-MI): restored to normal levels
% EF (Ejection Fraction) [3, 10]: 67.727 ± 3.762%
% FS (Fractional Shortening) [3, 10]: 37.135 ± 2.848%
LV Mass (Left Ventricular Mass, Anatomical Weight) [3, 10]: 62.439 ± 4.833 mg
LV Vol; d (Left Ventricular Volume; diastole) [3, 10]: 43.309 ± 5.883 µL
LV Vol; s (Left Ventricular Volume; systole) [3, 10]: 14.962 ± 3.612 µL
